Source: patent US20250223301A1, “KINASE INHIBITORS, PREPARATION METHODS AND USES THEREOF” (InventisBio Co., Ltd., priority 2022, published 2025)

What was measured:
DGKz = DGKz (Homo sapiens (Human), UniProt Q13574); experiment: DGK ADP-Glo kinase assay (DGKz); format: biochemical; details: 5 nM DGKz, 15 uM ATP
Protocol: Luminescence was recorded using an Tecan SPARK microplate reader.

DGKa = DGKa (Homo sapiens (Human), UniProt P23743); experiment: biochemical;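 note: biochemical DGK kinase assay, ADP-Glo luminescence from ADP made by phosphorylating 1,2-dioleoyl-sn-glycerol, 20 min compound preincubation then 40 min reaction at 25 °C, 1% DMSO control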
Chain of DGKa (P23743 whole entry): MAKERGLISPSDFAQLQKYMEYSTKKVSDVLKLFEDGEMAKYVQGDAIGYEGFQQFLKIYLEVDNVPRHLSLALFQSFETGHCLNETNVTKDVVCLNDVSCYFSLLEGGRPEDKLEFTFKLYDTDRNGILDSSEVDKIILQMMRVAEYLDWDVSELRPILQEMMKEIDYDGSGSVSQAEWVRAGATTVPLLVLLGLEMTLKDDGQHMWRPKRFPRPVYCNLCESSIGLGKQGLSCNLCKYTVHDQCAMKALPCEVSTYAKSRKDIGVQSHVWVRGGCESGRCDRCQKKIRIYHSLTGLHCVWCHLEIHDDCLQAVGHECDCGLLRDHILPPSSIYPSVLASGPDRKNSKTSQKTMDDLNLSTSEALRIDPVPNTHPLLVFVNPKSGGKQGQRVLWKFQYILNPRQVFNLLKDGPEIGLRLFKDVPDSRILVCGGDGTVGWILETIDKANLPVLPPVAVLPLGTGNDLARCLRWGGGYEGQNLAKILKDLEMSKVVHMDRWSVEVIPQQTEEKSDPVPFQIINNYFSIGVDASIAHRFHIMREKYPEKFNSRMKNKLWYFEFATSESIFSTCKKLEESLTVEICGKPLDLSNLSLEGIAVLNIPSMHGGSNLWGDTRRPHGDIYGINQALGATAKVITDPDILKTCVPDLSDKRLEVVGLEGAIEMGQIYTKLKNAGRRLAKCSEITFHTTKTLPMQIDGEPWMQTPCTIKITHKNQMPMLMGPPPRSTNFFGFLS

PBMC = experiment: Human PBMC IL-2 assay; format: cell-based; details: anti-CD3/CD28 stimulation overnight, IL-2 level
Protocol: PBMC (frozen) obtained from health donor were thawed in RPMI-1640 medium with 10% FBS and incubated for 4 h at 37° C. In a 96-well plate, −200,000 PBMC cells in 160 uL were added to each assay well. Ten microliter compound solution (10 uM to 0.6 nM, 8 points with 4-fold dilution) were added to cells in each well and incubated for 60 minutes at 37° C. Then 30 uL anti-CD3/CD28 antibody (Catalog #10991, Stemcell) were added to cells and incubated overnight at 37° C. After the incubation, 16 uL supernatants were transferred into a new 384-well white assay plate for cytokine analysis. IL-2 level was quantified using Human IL-2 kit (Catalog #62HIL02PEG, Cisbio) as described in the manufacturer manual.
(§1) X is log of compound concentration, Y is the IL-2 concentration, increasing as X increases.

Jurkat cells = experiment: Jurkat IL-2 assay; format: cell-based; details: Homo sapiens, anti-CD3/CD28 stimulation overnight, IL-2 level
Protocol: Jurkat cells (ATCC) were cultured in RPMI-1640 medium supplemented with 10% FBS. In a 96-well plate, −250,000 cells in 130 uL were added to each assay well. Ten microliter compound solution (5 uM to 2.3 nM, 8 points with 3-fold dilution) were added to cells in each well and incubated for 60 minutes at 37° C. Then 10 uL anti-CD3/CD28 antibody (Catalog #10991, Stemcell) were added and incubated overnight at 37° C. After the incubation, 16 uL supernatants were transferred into a new 384-well white assay plate for cytokine analysis. IL-2 was quantified using Human IL-2 kit (Catalog #62HIL02PEG, Cisbio) as described in the manufacturer manual.
as §1

Chain of DGKz (Q13574 whole entry): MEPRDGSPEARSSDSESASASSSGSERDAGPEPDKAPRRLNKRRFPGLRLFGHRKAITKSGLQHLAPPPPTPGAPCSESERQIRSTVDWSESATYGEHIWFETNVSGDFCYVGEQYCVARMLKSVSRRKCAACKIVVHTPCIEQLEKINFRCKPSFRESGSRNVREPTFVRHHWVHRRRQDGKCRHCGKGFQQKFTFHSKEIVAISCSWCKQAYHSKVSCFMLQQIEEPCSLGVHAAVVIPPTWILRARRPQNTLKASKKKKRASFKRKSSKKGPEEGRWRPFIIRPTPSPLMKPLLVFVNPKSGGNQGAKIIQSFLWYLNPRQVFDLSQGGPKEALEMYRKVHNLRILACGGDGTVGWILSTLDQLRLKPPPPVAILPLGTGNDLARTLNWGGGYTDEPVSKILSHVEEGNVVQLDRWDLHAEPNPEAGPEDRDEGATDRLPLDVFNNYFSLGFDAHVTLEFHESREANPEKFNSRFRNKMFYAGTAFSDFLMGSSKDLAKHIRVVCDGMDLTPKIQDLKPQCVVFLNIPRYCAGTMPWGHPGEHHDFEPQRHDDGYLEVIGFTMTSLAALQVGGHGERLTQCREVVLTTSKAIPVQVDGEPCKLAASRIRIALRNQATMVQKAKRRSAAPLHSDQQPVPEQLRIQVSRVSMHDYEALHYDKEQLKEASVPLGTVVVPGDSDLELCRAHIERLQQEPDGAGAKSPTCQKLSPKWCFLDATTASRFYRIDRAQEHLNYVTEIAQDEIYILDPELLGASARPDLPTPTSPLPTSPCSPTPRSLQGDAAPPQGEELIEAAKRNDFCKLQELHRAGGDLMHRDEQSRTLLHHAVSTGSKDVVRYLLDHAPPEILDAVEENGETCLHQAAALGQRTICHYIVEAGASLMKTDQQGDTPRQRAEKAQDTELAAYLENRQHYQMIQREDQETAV

Row | SMILES | IC50 (DGKz) [nM] | IC50 (DGKa) [nM] | EC50 (Jurkat cells) [nM] | EC50 (PBMC) [nM]
1 | CC[C@H]1C[C@]2(CCN1c1nc(=O)n(C)c3ccc(C#N)nc13)CC(c1ccc(OC(F)(F)F)cc1)=NO2 (single isomer, unassigned) [Compound 74] | 1570 | 10 |  | 
2 | CC[C@@H]1C[C@@]2(CCN1c1nc(=O)n(C)c3ccc(C#N)nc13)CC(c1ccc(OC(F)(F)F)cc1)=NO2 (single isomer, unassigned) [Compound 75] | 660 | 253 |  | 
3 | CC[C@H]1C[C@@H](c2nc3cc(C)ccc3o2)CCN1c1nc(=O)n(C)c2cc(O[C@@H]3CCOC3)c(Cl)cc12 (single isomer, unassigned) [Compound 94] | 1300 | 140 |  | 
4 | CC[C@H]1C[C@H](c2nc3cc(C)ccc3o2)CCN1c1nc(=O)n(C)c2cc(OC3CCOC3)c(Cl)cc12 (single isomer, unassigned) [Compound 97] | 6 | 5 |  | 
5 | CC[C@H]1CN([C@@H](CC)c2ccc(OC(F)(F)F)cc2)[C@H](CC)CN1c1nc2nncn2c2ccc(C#N)nc12 (single isomer, unassigned) [Compound 100] | 30 | 1 |  | 
6 | CC[C@H]1CN([C@@H](C)c2ccc(SC(F)(F)F)cc2)[C@H](CC)CN1c1nc2nncn2c2ccc(C#N)nc12 (stereo in doubt) [Compound 51] | 50 | 58 |  | 
7 | CC[C@H]1CN([C@H](C)c2ccc(SC(F)(F)F)cc2)[C@H](CC)CN1c1nc2nncn2c2ccc(C#N)nc12 (stereo in doubt) [Compound 52] | 499 | 5 |  | 
8 | CC[C@H]1CN([C@H](CC)c2cccc(S(F)(F)(F)(F)F)c2)[C@H](CC)CN1c1nc(=O)n(C)c2ccc(C#N)nc12 (stereo in doubt) [Compound 56] | 131 | 415 |  | 
9 | CC[C@@H]1CN(c2nc(=O)n(C)c3ccc(C#N)nc23)[C@@H](C)CN1[C@@H](CC)c1ccc(S(F)(F)(F)(F)F)cc1 (stereo in doubt) [Compound 60] | 28 | 83 |  | 
10 | CC[C@@H]1CN(c2nc(=O)n(C)c3ccc(C#N)nc23)[C@@H](C)CN1[C@H](CC)c1ccc(S(F)(F)(F)(F)F)cc1 (stereo in doubt) [Compound 61] | 180 | 128 |  | 
11 | CC[C@H]1CN([C@@H](C)c2ccc(S(F)(F)(F)(F)F)cc2)[C@H](CC)CN1c1nc(=O)n(C)c2ccc(C#N)nc12 (stereo in doubt) [Compound 62] | 132 | 35 |  | 
12 | CC[C@H]1CN([C@H](C)c2ccc(S(F)(F)(F)(F)F)cc2)[C@H](CC)CN1c1nc(=O)n(C)c2ccc(C#N)nc12 (stereo in doubt) [Compound 63] | 639 | 16 |  | 
13 | CC[C@H]1CN(C2CCCOc3cc(C(F)(F)F)ccc32)[C@H](CC)CN1c1nc(=O)n(C)c2ccc(C#N)nc12 (some centres unmarked) [Compound 154] |  |  | 526 | 734
14 | CC[C@H]1CN2[C@@H](COC[C@@H]2c2ccc(C(F)(F)F)cc2)CN1c1nc(=O)n(C)c2ccc(C#N)nc12 [Compound 193] |  |  | 1620 | 1310
15 | CC[C@@H]1CN2c3c(c(=O)n(C)c4ccc(C#N)nc34)N(C)C(=O)[C@@H]2CN1[C@H](CC)c1ccc(C(F)(F)F)cc1 [Compound 199] |  |  | 873 | 1580
16 | CC[C@@H]1CN2c3c(c(=O)n(C)c4ccc(C#N)cc34)OC[C@@H]2CN1[C@@H](CC)c1ccc(C(F)(F)F)cc1 [Compound 210] |  |  | 565 | 1720
17 | CC[C@@H]1CN2c3c(c(=O)n(C)c4ccc(C#N)cc34)OC[C@@H]2CN1[C@H](CC)c1ccc(C(F)(F)F)cc1 [Compound 211] |  |  | 485 | 175
18 | CC[C@@H]1CN2c3c(c(=O)n(C)c4ccc(C#N)nc34)N(C)C[C@@H]2CN1[C@@H](CC)c1ccc(C(F)(F)F)cc1 [Compound 221] |  |  | 503 | 624
19 | CC[C@@H]1CN2c3c(c(=O)n(C)c4ccc(C#N)nc34)OC[C@@H]2CN1[C@@H](CO)c1ccc(C(F)(F)F)cc1 [Compound 235] |  |  | 538 | 662
20 | C[C@H]1c2cccc(-c3ccc(C(F)(F)F)cc3)c2CCN1c1nc(=O)n(C)c2ccc(C#N)nc12 [Compound 241] |  |  | 588 | 1100

The next lines start with results.

Row | IC50 (DGKz) [nM] | IC50 (DGKa) [nM] | EC50 (Jurkat cells) [nM] | SMILES | EC50 (PBMC) [nM]
21 |  |  | 64 | CC[C@@H]1CN2c3c(c(=O)n(C)c4ccc(C#N)nc34)OC[C@@H]2CN1[C@@H](CC)c1ccc(Cl)c(C(F)(F)F)c1 (stereo in doubt) [Compound 327] | 103
22 |  |  | 339 | CC[C@H](c1ccc(C(F)(F)F)c(F)c1)N1C[C@H]2COc3c(c4nc(C#N)ccc4n(C)c3=O)N2C[C@H]1C (stereo in doubt) [Compound 328] | 302
23 |  |  | 97 | CC[C@@H](c1ccc(C(F)(F)F)c(F)c1)N1C[C@H]2COc3c(c4nc(C#N)ccc4n(C)c3=O)N2C[C@H]1C (stereo in doubt) [Compound 329] | 54
24 |  |  | 131 | CC[C@@H]1CN2c3c(c(=O)n(C)c4ccc(C#N)nc34)OC[C@@H]2CN1[C@H](CC)c1ccc(F)c(C)c1 (stereo in doubt) [Compound 336] | 163
25 |  |  | 12 | CC[C@@H]1CN2c3c(c(=O)n(C)c4ccc(C#N)nc34)OC[C@@H]2CN1[C@@H](CC)c1ccc(F)c(C)c1 (stereo in doubt) [Compound 337] | 16
26 |  |  | 86 | CC[C@@H]1CN2c3c(c(=O)n(C)c4ccc(C#N)nc34)OC[C@@H]2CN1[C@H](CC)c1ccc(C)c(F)c1 (stereo in doubt) [Compound 338] | 153
27 |  |  | 7 | CC[C@@H]1CN2c3c(c(=O)n(C)c4ccc(C#N)nc34)OC[C@@H]2CN1[C@@H](CC)c1ccc(C)c(F)c1 (stereo in doubt) [Compound 339] | 13
28 |  |  | 6 | CC[C@@H]1CN2c3c(c(=O)n(C)c4ccc(C#N)nc34)OC[C@@H]2CN1[C@@H](CC)c1ccc(Cl)c(C)c1 (stereo in doubt) [Compound 341] | 13
29 |  |  | 125 | CC[C@@H]1CN2c3c(c(=O)n(C)c4ccc(C#N)nc34)OC[C@@H]2CN1[C@H](CC)c1ccc(C)c(Cl)c1 (stereo in doubt) [Compound 342] | 280
30 |  |  | 45 | CC[C@@H]1CN2c3c(c(=O)n(C)c4ccc(C#N)nc34)OC[C@@H]2CN1[C@@H](CC)c1ccc(C)c(Cl)c1 (stereo in doubt) [Compound 343] | 18
31 |  |  | 96 | CC[C@@H]1CN2c3c(c(=O)n(C)c4ccc(C#N)nc34)OC[C@@H]2CN1[C@H](CC)c1ccc(C)cc1 (stereo in doubt) [Compound 344] | 53
32 |  |  | 18 | CC[C@@H]1CN2c3c(c(=O)n(C)c4ccc(C#N)nc34)OC[C@@H]2CN1[C@@H](CC)c1ccc(C)cc1 (stereo in doubt) [Compound 345] | 10
33 |  |  | 122 | CC[C@@H]1CN2c3c(c(=O)[nH]c4ccc(C#N)nc34)OC[C@@H]2CN1[C@@H](CC)c1ccc(C(F)(F)F)cc1 [Compound 252] | 106
34 |  |  | 165 | CC[C@@H]1CN2c3c(c(=O)n(C)c4ccc(C#N)nc34)OC[C@@H]2CN1Cc1ccc(C(F)(F)F)cc1 [Compound 265] | 152
35 |  |  | 163 | CC[C@@H]1CN2c3c(c(=O)n(C)c4ccc(C#N)nc34)OC[C@@H]2CN1Cc1ccc(Cl)c(Cl)c1 [Compound 266] | 111
36 |  |  | 256 | CC[C@@H]1CN2c3c(c(=O)n(C)c4ccc(C#N)nc34)OC[C@@H]2CN1[C@@H](c1ccc(C(F)(F)F)cc1)C(C)C [Compound 272] | 325
37 |  |  | 40 | CC[C@@H]1CN2c3c(c(=O)n(C)c4ccc(C#N)nc34)OC[C@@H]2CN1[C@@H](COC)c1ccc(C(F)(F)F)cc1 [Compound 283] | 36
38 |  |  | 16 | CC[C@@H]1CN2c3c(c(=O)n(C)c4ccc(C#N)nc34)OC[C@@H]2CN1[C@@H](CC)c1ccc(C(C)(F)F)cc1 [Compound 289] | 7
39 |  |  | 688 | Cn1c(=O)c2c(c3nc(C#N)ccc31)N1CC[C@@H](Oc3ccc(C(F)(F)F)cc3)C[C@H]1CO2 [Compound 325] | 561
40 |  |  | 267 | CC[C@@H]1CN2c3c(c(=O)n(C)c4ccc(C#N)nc34)OC[C@@H]2CN1[C@H](CC)c1ncc(C(F)(F)F)cn1 [Compound 330] | 115
41 |  |  | 14 | CC[C@@H]1CN2c3c(c(=O)n(C)c4ccc(C#N)nc34)OC[C@@H]2CN1[C@@H](CC)c1ncc(C(F)(F)F)cn1 [Compound 331] | 16
42 |  |  | 91 | CC[C@@H]1CN2c3c(c(=O)n(C)c4ccc(C#N)nc34)OC[C@@H]2CN1[C@@H](c1ccc(C(F)(F)F)cc1)C1CC1 [Compound 346] | 138
43 |  |  | 9 | CC[C@@H]1CN2c3c(c(=O)n(C)c4ccc(C#N)nc34)OC[C@@H]2CN1[C@H](c1ccc(C(F)(F)F)cc1)C1CC1 [Compound 347] | 13
